Data on 16 compounds can be found in EP0374886A2, “Antiretroviral furan ketones” (MERRELL DOW PHARMACEUTICALS INC., priority 1988, dated 1990).

In brackets after ≈: the same amount, converted by molar mass.

For test [1], the system named is Moloney murine leukemia virus (MoLV). Kind of test: in vitro XC plaque assay (inhibition of virus plaque growth in mouse SC-1 cells / rat XC cells). The test is classed as cell-based. Conditions: SC1, concentration giving a 50% inhibition of virus plaque growth, compounds added 2 hours prior to virus, read-out: IC₅₀. As to the method:
The ability of the furan ketone derivatives of this invention to act as anti-retroviral agents can be demonstrated by their ability to inhibit the growth and replication of murine leukemia virus, an oncogenic retrovirus, as determined by an in vitro XC plaque assay. This assay was performed according to the method of Rowe et al. (Virology, 1970, 42, 1136-39) as previously described by L. Hsu, et al. (J. Virological Methods, 1980, 1, 167-77) and T. L. Bowlin and M. R. Proffitt (J. Interferon Res., 1983, 3(1), 19-31). Mouse SC-1 cells (fibroblast) (10⁵) were seeded into each well of 6-well cluster plates (Costar #3506) in 4 ml Minimum Essential Medium (MEM) with 10% Fetal Calf Serum (FCS). Following an 18 hour incubation period (37°C), Moloney murine leukemia virus (MoLV) was applied at a predetermined titer to give optimal (i.e. countable) numbers of virus plaques. Compounds were added 2 hours prior to addition of the virus. Three days later the culture medium was removed, the SC-1 cell monolayers were exposed to UV irradiation (1800 ergs), and rat XC cells (10⁶) were seeded into each well in 4 ml MEM. Following an additional 3 day incubation (37°C), these cells were fixed with ethyl alcohol (95%) and stained with 0.3% crystal violet. Plaques were then counted under low magnification. The antiviral activities of various compounds of this invention are tabulated in Table I in terms of the IC₅₀, i,e, the concentration giving a 50% inhibition of virus plaque growth.

The test system of another test is HIV1GB8 strain of HIV-1. Kind of test: anti-HIV activity in T-cells (JM cells): syncytial cell count and p24 antigen after 4 days. Conditions: for SYNCYTIAL COUNT: untreated 29; for P24 ANTIGEN: untreated 801; for inhibition at 15 µg/mL / inhibition at 30 µg/mL: Human immunodeficiency virus 1, T-cell, 96 h, inhibition of syncytial count. The test is classed as cell-based. As to the method: To further confirm the antiretroviral activity of these compounds, methyl 5-tetradecyloxy-2-furyl ketone and methyl 5-tetradecylthiomethyl-2-furyl ketone were evaluated for activity against HIV. Following overnight pretreatment of T-cells (JM cells) with the HIV1GB8 strain of HIV-1, the test compounds were added to the cell cultures at concentrations of 15 and 30 µg/ml. After 4 days the number of synctial cells in the cell culture and the amount of p24 antigen, also a measure of viral replication, were determined.

As for `CCCCCCCC/C=C\CCCCCCCCOc1ccc(C(C)=O)o1` [Methyl 5-(cis-9-octadecenyl)oxy-2-furyl ketone], the IC50 in test [1] is less than 1 µg/mL.

For the compound `CCCCCCCCCCCCCCSCc1ccc(C(C)=O)o1` [Methyl 5-tetradecylthiomethyl-2-furyl ketone], in the test with HIV1GB8 strain of HIV-1 (15 µg/ml), the “SYNCYTIAL COUNT” value amounted to 3, the “P24 ANTIGEN” value turned out to be 152 pg X 10³/ml and the inhibition at 15 µg/mL came to 90%. Also, in the test on HIV1GB8 strain of HIV-1 (30 µg/ml), the “SYNCYTIAL COUNT” value worked out at 0 and 30 µg/mL produced 100% inhibition. Further, in test [1], the IC50 was found to be 1 µg/mL (≈ 2.84 µM). `CCCCCCCCCCCCCCCOc1ccc(C(C)=O)o1` [Methyl 5-pentadecyloxy-2-furyl ketone]: the IC50 in test [1] was 5 to 10 µg/mL (≈ 14.9 to 29.7 µM). As to `CCCCCCCCCCCCCCOCc1ccc(C(C)=O)o1` [Methyl 5-tetradecyloxymethyl-2-furyl ketone], the IC50 in test [1] was 1 to 10 µg/mL (≈ 2.97 to 29.7 µM).

For `CCCCCCCCCCCCC(C)COc1ccc(C(C)=O)o1` (centres unmarked) [Methyl 5-(2-methyltetradecyloxy)-2-furyl ketone], the IC50 in test [1] is 1 to 5 µg/mL (≈ 2.97 to 14.9 µM). In the case of `CCCCCCCCCCCCCCOc1ccc(C(C)=O)o1` [Methyl 5-tetradecyloxy-2-furyl ketone], in the test with HIV1GB8 strain of HIV-1 (15 µg/ml), the “SYNCYTIAL COUNT” value was determined as 19, the “P24 ANTIGEN” value is 450 pg X 10³/ml and the inhibition at 15 µg/mL came out at 34%. Besides, in the test on HIV1GB8 strain of HIV-1 (30 µg/ml), the “SYNCYTIAL COUNT” value came to 0 and at 30 µg/mL the inhibition was 100%. Also, in test [1], the IC50 turned out to be 4 µg/mL (≈ 12.4 µM). For the compound `CCCCCCCCCCCCCCSc1ccc(C(C)=O)o1` [Methyl 5-tetradecylthio-2-furyl ketone], in test [1], the IC50 lay in the range of 1 to 10 µg/mL (≈ 2.95 to 29.5 µM). Regarding `CCCCCCCCCCCCCCOc1ccc(C(=O)CCCCCC)o1` [Hexyl 5-tetradecyloxy-2-furyl ketone], in test [1], the IC50 was 5 to 10 µg/mL (≈ 12.7 to 25.5 µM). Consider `CCCCCCCCCCOc1ccc(C(C)=O)o1` [Methyl 5-decyloxy-2-furyl ketone], for which the IC50 in test [1] was in the range of 1 to 10 µg/mL (≈ 3.75 to 37.5 µM). In the case of `CCCCCCCCCCCCCCCCOc1ccc(C(C)=O)o1` [Methyl 5-hexadecyloxy-2-furyl ketone], the IC50 in test [1] fell in the range of 1 to 10 µg/mL (≈ 2.85 to 28.5 µM).

In the case of `CC(=O)c1ccc(OCCC(C)CCCC(C)CCCC(C)C)o1` (centres unmarked) [Methyl 5-(3,7,11-trimethyldodecyloxy)-2-furyl ketone], in test [1], the IC50 was less than 1 µg/mL.

Consider `CCCCCCCCCCCCCCc1ccc(C(C)=O)o1` [Methyl 5-tetradecyl-2-furyl ketone], for which the IC50 in test [1] fell in the range of 1 to 10 µg/mL (≈ 3.26 to 32.6 µM). `CCCCCCCCCCCCCCCCCCOc1ccc(C(C)=O)o1` [Methyl 5-octadecyloxy-2-furyl ketone]: the IC50 in test [1] was more than 10 µg/mL.

Turning to `CCCCCCCCCCCCc1ccc(C(C)=O)o1` [Methyl 5-dodecyl-2-furyl ketone], the IC50 in test [1] lay in the range of 5 to 10 µg/mL (≈ 18 to 35.9 µM). Regarding `CCCCCCCCCCCCOc1ccc(C(C)=O)o1` [Methyl 5-dodecyloxy-2-furyl ketone], the IC50 in test [1] lay in the range of 1 to 10 µg/mL (≈ 3.4 to 34 µM).

With `CCCCCCCCCCCCCCOc1ccc(C(=O)C(C)(C)C)o1` [t-Butyl 5-tetradecyloxy-2-furyl ketone], in test [1], the IC50 lay within 5 to 10 µg/mL (≈ 13.7 to 27.4 µM).
